Test results published in patent publication US8334002B2, “Cinnamaldehyde—allicin compositions and their method of use” (Valent BioSciences Corporation, priority 2008, dated 2012).

How the values were obtained:
[1] = system: Root Knot Nematodes (Meloidogyne incognita); assay: Greenhouse pot test, root galling after inoculation with second stage juveniles; assay type: in vivo; details: 300 ppm total a.i.
Description: Procedure for Greenhouse pot Tests:
2″×2″ plastic pots are filled with 140 to 150 g of plant growth medium that is made up of non-pasteurized sand and soil at 2:1 ratio. Three cucumber seeds (variety Straight Eight; in the case of tomatoes, variety Rutgers) are planted at uniform depth and watered. Upon emergence, two uniform seedlings are allowed to grow in each pot by removing the third seedling. Seedlings are selected when the first true leaf is emerged, generally 5 to 7 days after planting. Each pot is treated with test material diluted in 25 mL of water that is just sufficient to wet the soil but not drip. Except for untreated control, all test pots are inoculated with about 800 second stage juveniles of Root Knot Nematodes (Meloidogyne incognita). Plants are watered as needed. Twelve to fourteen days after the pots are inoculated, the plants are carefully removed from the pots, the roots are gently washed free of soil and placed on paper towels, and data on fresh weight of shoots, roots, number of galls/treatment and/or per gram of root are taken.

nematodes = details: at concentrations of 300 ppm; cited from earlier work
[2] = cucumber, preferred formulations of Table 2

Compound	% gall reduction in relation to M.i Control [1, 2]	Average gall rating (0-9) [1, 2]	% gall reduction in relation to M.i Control ([1]; prototype formulations of Table 1)	Average gall rating (0-9) ([1]; prototype formulations of Table 1, 0 = no galls, 9 = heavy galling)	nematicidal activity (nematodes)
C=CCS[S+]([O-])CC=C (stereo not shown) [Allicin, allicin]	41.7%	5.25	72.7%	2.25	
O=CC=Cc1ccccc1 [Cinnamaldehyde, cinnamaldehyde]	19.4%	7.25			only marginal
